From US12152048B2, “Nitroxoline prodrug and use thereof” (Jiangsu Yahong Meditech Co., Ltd., priority 2018, dated 2024)
Values after ≈ are worked out from the molar mass of the structure shown.

Experiments:
[1] = Stability in dog liver microsome; details: 2 μM, 37° C., 30 minutes
[2] = Stability in human liver microsome; details: 2 μM, 37° C., 30 minutes
[3] = Stability in rat liver microsome; details: 2 μM, 37° C., 30 minutes
[4] = Determination of water solubility in phosphate buffer; assay type: physicochemical; details: for solubility at 24 h: aqueous buffer, thermodynamic from solid, phosphate buffer pH 7.4, room temperature; for water solubility compared with nitroxoline: conclusion in words
Source text: Experimental instruments: 96-well filter plate (MSHVN4510 or MSHVN4550, Millipore); electronic digital display vortex mixer (MS3 Digital, IKA); multi-purpose vacuum pump (circulating water type, SHB-111, Zhengzhou Greatwall Scientific Industrial and Trade Co., Ltd.); balance (XSLT05, Mettler-Toledo); comfortable mixer (Eppendorf AG 22331 Hamburg, Eppendorf); liquid chromatography (LC-3AD, Shimadzu); mass spectrometry (API4000, Applied Biosystems, USA); sample injector (Anylytics AG System, CTC). Nitroxoline was prepared according to the method disclosed in Journal of Heterocyclic Chemistry, 1971, vol. 8, p 821 by Wisdom Pharmaceutical Co., Ltd.
Experimental process: 500 μL of phosphate buffer (pH=1.2, 4.5, 6.8 or 7.4) were added to a glass flask, to which 2 mg of compound powder were added. The flask was sealed with a cap and shaked on a mixer (VORTEX-GENIE2) at room temperature for 24 hours. The solution was subjected to vacuum filtration, and the filtrate was processed to determine the compound concentration by LC/MS/MS.

[5] = Stability in mouse liver microsome; assay type: in vitro ADME; details: 2 μM, 37° C., 30 minutes

SMILES	Percentage of the compound remaining in dog liver microsome ([1]; with coenzyme) [%]	Percentage of the compound remaining in dog liver microsome ([1]; without coenzyme) [%]	Percentage of the compound remaining in human liver microsome ([2]; with coenzyme) [%]	Percentage of the compound remaining in human liver microsome ([2]; without coenzyme) [%]	Percentage of the compound remaining in rat liver microsome ([3]; with coenzyme) [%]	Percentage of the compound remaining in rat liver microsome ([3]; without coenzyme) [%]	solubility at 24 h [4] [µg/mL]	Percentage of the compound remaining in mouse liver microsome ([5]; with coenzyme) [%]	Percentage of the compound remaining in mouse liver microsome ([5]; without coenzyme) [%]	water solubility compared with nitroxoline [4]
CC(=O)OCOc1ccc([N+](=O)[O-])c2cccnc12 [Compound 1, (5-nitroquinolin-8-yloxy)methyl acetate]	0.42	0.73	0.24	0.76	0.15	0.27	91.1	0.16	0.27	
CCC(=O)OCOc1ccc([N+](=O)[O-])c2cccnc12 [Compound 2, (5-nitroquinolin-8-yloxy)methyl propionate]	0.13	0.18	0.27	0.16	0.52	0.45	72.7 (≈ 263 µM)	0.10	0.02	
CC(C)C(=O)OCOc1ccc([N+](=O)[O-])c2cccnc12 [Compound 3, (5-nitroquinolin-8-yloxy)methyl isobutyrate]	0.16	0.19	0.05	0.06	0.08	0.04	59.2 (≈ 204 µM)	0.01	0.01	
CC(C)(C)OC(=O)NCCCCCCC(=O)OCOc1ccc([N+](=O)[O-])c2cccnc12 [Compound 12, (5-nitroquinolin-8-yloxy)methyl 7-(tert-butoxycarbonylamino)heptanoate]	0.00	0.02	0.00	0.03	0.00	0.02	1.85 (≈ 4.13 µM)			
CCCOC(=O)N1CCC[C@H]1C(=O)OCOc1ccc([N+](=O)[O-])c2cccnc12 [Compound 18, (S)-2-(5-nitroquinolin-8-yloxy)methyl 1-propyl pyrrolidine-1,2-dicarboxylate]	0.14	1.40	2.65	5.06	0.06	4.63	132 (≈ 328 µM)	0.26	0.00	increased by several times
CC(=O)OC(C)Oc1ccc([N+](=O)[O-])c2cccnc12 (stereo not drawn) [Compound 47, 1-(5-nitroquinolin-8-yloxy)ethyl acetate]	0.01	0.02	0.03	0.02	0.01	0.02	285	0.04	0.04	
CCC(=O)OC(C)Oc1ccc([N+](=O)[O-])c2cccnc12 (stereo not drawn) [Compound 48, 1-(5-nitroquinolin-8-yloxy)ethyl propionate]	0.03	0.02	0.08	0.10	0.06	0.03		0.03	0.05	
CC(OC(=O)C(C)C)Oc1ccc([N+](=O)[O-])c2cccnc12 (stereo not drawn) [Compound 49, 1-(5-nitroquinolin-8-yloxy)ethyl isobutyrate]	0.01	0.01	0.03	0.03	0.01	0.03	105 (≈ 344 µM)	0.01	0.03	
CC(=O)N(C)CC(=O)OCc1cccnc1N(C)C(=O)OCOc1ccc([N+](=O)[O-])c2cccnc12 [Compound 65]	65.08	93.36	29.88	39.15	4.33	59.38	965 (≈ 1940 µM)	0.72	2.63	increased by several times
CN(CC(=O)OCc1cccnc1N(C)C(=O)OCOc1ccc([N+](=O)[O-])c2cccnc12)C(=O)C(C)(C)C [Compound 66]	13.05	67.43	9.77	74.45	0.06	12.10	540 (≈ 1000 µM)	0.02	4.32	increased by several times
CN(C)C(=O)Oc1ccc([N+](=O)[O-])c2cccnc12 [Compound 78, 5-nitroquinolin-8-yl dimethylcarbamate]	0.36	98.41	14.46	90.37	2.40	91.50	226 (≈ 863 µM)	0.00	100.18	
